Assay results: patent US10081624B2, “Heterocyclic compound” (Takeda Pharmaceutical Company Limited, priority 2014, dated 2018)

Experiments:
HDAC1 enzyme = target: T1, HDAC1 enzyme (Homo sapiens, UniProt Q13547); assay: HDAC1 enzyme inhibitory assay (HDAC-Glo I/II Assay kit); type: biochemical; settings: 1 μM test compound; for inhibition at 1 µM: read-out: HDAC1 inhibitory rate (%) (1 μM)
T1 construct: prepared by transducing full length HDAC1 and HDAC6 genes into Sf-9 insect cells; GST; purchased SignalChem; host or cells: Sf-9 insect cells
T1 sequence (Q13547 whole entry): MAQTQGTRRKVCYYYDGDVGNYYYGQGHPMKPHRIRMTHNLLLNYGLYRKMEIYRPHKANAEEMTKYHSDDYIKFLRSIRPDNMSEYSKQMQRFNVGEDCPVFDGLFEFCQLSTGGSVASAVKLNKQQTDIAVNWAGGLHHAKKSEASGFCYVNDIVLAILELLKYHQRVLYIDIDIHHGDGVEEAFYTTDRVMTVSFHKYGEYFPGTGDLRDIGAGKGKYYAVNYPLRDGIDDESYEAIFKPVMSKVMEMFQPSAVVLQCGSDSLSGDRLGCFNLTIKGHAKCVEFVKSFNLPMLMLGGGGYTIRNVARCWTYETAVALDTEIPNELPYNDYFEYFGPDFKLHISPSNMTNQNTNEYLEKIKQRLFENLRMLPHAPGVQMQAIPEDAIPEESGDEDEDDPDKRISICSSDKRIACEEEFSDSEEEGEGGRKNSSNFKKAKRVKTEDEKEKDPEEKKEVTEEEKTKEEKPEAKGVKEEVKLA
Outline: (§1)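 Luminescent HDAC-Glo I/II read-out after 20 min room-temperature reaction with substrate-developer, following a 60 min room-temperature enzyme–compound preincubation. Enzymes: full-length HDAC1 or HDAC6 from Sf-9 cells, GST-purified; buffer pH 7.5 Tris with NaCl, glutathione, 0.01% Tween-20. No-enzyme wells defined 100% inhibition.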

HDAC6 enzyme = target: T2, HDAC6 enzyme (Homo sapiens, UniProt Q9UBN7); assay: HDAC6 enzyme inhibitory assay (HDAC-Glo I/II Assay kit); type: biochemical; settings: 1 μM test compound; for inhibition at 1 µM: read-out: HDAC6 inhibitory rate (%) (1 μM)
T2 construct: prepared by transducing full length HDAC1 and HDAC6 genes into Sf-9 insect cells; GST; purchased SignalChem; host or cells: Sf-9 insect cells
T2 sequence (Q9UBN7 1-1215): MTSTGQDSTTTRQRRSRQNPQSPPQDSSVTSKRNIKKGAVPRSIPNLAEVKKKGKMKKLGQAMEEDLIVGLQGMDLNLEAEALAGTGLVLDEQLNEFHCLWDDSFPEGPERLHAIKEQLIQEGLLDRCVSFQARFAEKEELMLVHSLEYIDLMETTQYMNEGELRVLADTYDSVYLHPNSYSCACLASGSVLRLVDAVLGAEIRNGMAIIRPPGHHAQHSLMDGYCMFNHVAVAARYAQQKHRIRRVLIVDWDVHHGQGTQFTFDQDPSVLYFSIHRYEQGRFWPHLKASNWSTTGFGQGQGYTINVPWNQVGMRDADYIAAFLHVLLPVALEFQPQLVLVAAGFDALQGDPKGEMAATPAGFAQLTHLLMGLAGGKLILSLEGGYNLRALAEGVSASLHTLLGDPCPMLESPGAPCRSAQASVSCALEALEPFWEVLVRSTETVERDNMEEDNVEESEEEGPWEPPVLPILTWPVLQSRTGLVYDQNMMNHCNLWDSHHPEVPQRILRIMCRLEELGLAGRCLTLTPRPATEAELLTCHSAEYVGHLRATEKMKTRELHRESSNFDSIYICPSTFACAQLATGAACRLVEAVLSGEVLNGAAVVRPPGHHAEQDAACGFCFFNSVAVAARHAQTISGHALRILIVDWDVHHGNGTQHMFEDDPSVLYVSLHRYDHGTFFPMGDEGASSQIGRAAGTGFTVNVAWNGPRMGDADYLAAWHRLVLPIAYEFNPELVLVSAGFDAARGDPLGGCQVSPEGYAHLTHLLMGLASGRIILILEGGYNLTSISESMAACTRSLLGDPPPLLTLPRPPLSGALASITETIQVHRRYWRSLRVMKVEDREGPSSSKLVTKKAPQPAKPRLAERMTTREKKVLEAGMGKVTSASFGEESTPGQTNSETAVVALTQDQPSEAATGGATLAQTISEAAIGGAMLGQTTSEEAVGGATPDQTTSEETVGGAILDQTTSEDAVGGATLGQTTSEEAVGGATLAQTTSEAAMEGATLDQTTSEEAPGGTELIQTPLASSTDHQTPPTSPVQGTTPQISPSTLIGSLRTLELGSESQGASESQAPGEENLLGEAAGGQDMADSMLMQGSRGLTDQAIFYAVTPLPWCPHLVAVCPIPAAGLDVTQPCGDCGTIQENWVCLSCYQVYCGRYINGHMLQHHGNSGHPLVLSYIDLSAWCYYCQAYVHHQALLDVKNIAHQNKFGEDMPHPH
Outline: as §1

| inhibition at 1 µM (HDAC1 enzyme) | inhibition at 1 µM (HDAC6 enzyme) | HDAC6 inhibitory rate (%) (1 μM) (HDAC6 enzyme) | HDAC1 inhibitory rate (%) (1 μM) (HDAC1 enzyme; 1 µM) | Structure (SMILES) |
| --- | --- | --- | --- | --- |
| 15% | 99% |  |  | O=C(NC[C@H]1COCCN1C(=O)c1ccc(OCC(F)(F)F)nc1)c1ccc(-c2noc(C(F)(F)F)n2)cc1 [Example 51, N-(((3S)-4-((6-(2,2,2-trifluoroethoxy)pyridin-3-yl)carbonyl)morpholin-3-yl)methyl)-4-(5-(trifluoromethyl)-1,2,4-oxadiazol-3-yl)benzamide] |
| 16% | 90% |  |  | O=C(NCC1CCc2ccccc2N1C(=O)c1ccccc1)c1ccc(-c2noc(C(F)(F)F)n2)cc1 (centres unmarked) [Example 173, N-((1-benzoyl-1,2,3,4-tetrahydroquinolin-2-yl)methyl)-4-(5-(trifluoromethyl)-1,2,4-oxadiazol-3-yl)benzamide] |
| 40% | 98% |  |  | O=C(NCC1COCCN1C(=O)C(F)(F)c1ccccc1)c1ccc(-c2noc(C(F)(F)F)n2)cc1 (stereo in doubt) [Example 96, N-(((3S)-4-(difluoro(phenyl)acetyl)morpholin-3-yl)methyl)-4-(5-(trifluoromethyl)-1,2,4-oxadiazol-3-yl)benzamide] |
| 19% | 100% |  |  | O=C(NC[C@@H]1COCCN1C(=O)c1cc2ccccc2o1)c1ccc(-c2noc(C(F)(F)F)n2)cc1 [Example 125, N-(((3R)-4-(1-benzofuran-2-ylcarbonyl)morpholin-3-yl)methyl)-4-(5-(trifluoromethyl)-1,2,4-oxadiazol-3-yl)benzamide] |
| 43% | 98% |  |  | Cc1nonc1C(=O)N1CCOCC1CNC(=O)c1ccc(-c2noc(C(F)(F)F)n2)s1 (centres unmarked) [Example 236, N-((4-((4-methyl-1,2,5-oxadiazol-3-yl)carbonyl)morpholin-3-yl)methyl)-5-(5-(trifluoromethyl)-1,2,4-oxadiazol-3-yl)thiophene-2-carboxamide] |
| 16% |  | 99% |  | N#Cc1cccc(C(=O)N2CCOC[C@@H]2CNC(=O)c2ccc(-c3noc(C(F)(F)F)n3)cc2)c1 [Example 44, N-(((3S)-4-(3-cyanobenzoyl)morpholin-3-yl)methyl)-4-(5-(trifluoromethyl)-1,2,4-oxadiazol-3-yl)benzamide] |
| 34% | 99% |  |  | O=C(NCC1COCCN1C(=O)C1C2CC3CC(C2)CC1C3)c1ccc(-c2noc(C(F)(F)F)n2)s1 (centres unmarked) [Example 256, N-((4-(adamantan-2-ylcarbonyl)morpholin-3-yl)methyl)-5-(5-(trifluoromethyl)-1,2,4-oxadiazol-3-yl)thiophene-2-carboxamide] |
| 21% | 95% |  |  | O=C(NC[C@@H]1COCCN1C(=O)c1cc(Cl)cc(Cl)c1)c1ccc(-c2noc(C(F)(F)F)n2)cn1 [Example 209, N-(((3R)-4-(3,5-dichlorobenzoyl)morpholin-3-yl)methyl)-5-(5-(trifluoromethyl)-1,2,4-oxadiazol-3-yl)pyridine-2-carboxamide] |
| 48% | 99% |  |  | Cc1nonc1C(=O)N1CCOC[C@H]1CNC(=O)c1ccc(-c2noc(C(F)(F)F)n2)s1 [Example 264, N-(((3R)-4-((4-methyl-1,2,5-oxadiazol-3-yl)carbonyl)morpholin-3-yl)methyl)-5-(5-(trifluoromethyl)-1,2,4-oxadiazol-3-yl)thiophene-2-carboxamide] |
| 15% | 96% |  |  | COC(=O)c1cccc(C(=O)N2CCOC[C@@H]2CNC(=O)c2ccc(-c3noc(C(F)(F)F)n3)cc2)c1 [Example 268, methyl 3-(((3S)-3-(((4-(5-(trifluoromethyl)-1,2,4-oxadiazol-3-yl)benzoyl)amino)methyl)morpholin-4-yl)carbonyl)benzoate] |
| 7% | 89% |  |  | O=C(O)c1cccc(C(=O)N2CCOC[C@@H]2CNC(=O)c2ccc(-c3noc(C(F)(F)F)n3)cc2)c1 [Example 269, 3-(((3S)-3-(((4-(5-(trifluoromethyl)-1,2,4-oxadiazol-3-yl)benzoyl)amino)methyl)morpholin-4-yl)carbonyl)benzoic acid] |
| 22% | 97% |  |  | O=C(NC[C@H]1COCCN1C(=O)C1CCCCC1)c1ccc(-c2noc(C(F)(F)F)n2)cn1 [Example 204, N-(((3S)-4-(cyclohexylcarbonyl)morpholin-3-yl)methyl)-5-(5-(trifluoromethyl)-1,2,4-oxadiazol-3-yl)pyridine-2-carboxamide] |
| 9% | 99% |  |  | O=C(NCC1COCCN1C(=O)N1CCOCC1)c1ccc(-c2noc(C(F)(F)F)n2)cc1 (stereo in doubt) [Example 99, N-(((3S)-4-(morpholin-4-ylcarbonyl)morpholin-3-yl)methyl)-4-(5-(trifluoromethyl)-1,2,4-oxadiazol-3-yl)benzamide] |
| 17% | 98% |  |  | Cn1nccc1C(=O)N1CCCC[C@@H]1CNC(=O)c1ccc(-c2noc(C(F)(F)F)n2)cc1 [Example 164, N-(((2R)-1-((1-methyl-1H-pyrazol-5-yl)carbonyl)piperidin-2-yl)methyl)-4-(5-(trifluoromethyl)-1,2,4-oxadiazol-3-yl)benzamide] |
| -1% | 36% |  |  | Cc1cc(C(=O)NCC2COCCN2C(=O)c2ccccc2)ccc1-c1noc(C(F)(F)F)n1 (centres unmarked) [Example 179, N-((4-benzoylmorpholin-3-yl)methyl)-3-methyl-4-(5-(trifluoromethyl)-1,2,4-oxadiazol-3-yl)benzamide] |
| 3% | 92% |  |  | O=C(NC[C@@H]1COCCN1C(=O)C1CCOCC1)c1ccc(-c2noc(C(F)(F)F)n2)cc1 [Example 153, N-(((3R)-4-(tetrahydro-2H-pyran-4-ylcarbonyl)morpholin-3-yl)methyl)-4-(5-(trifluoromethyl)-1,2,4-oxadiazol-3-yl)benzamide] |
| 12% | 98% |  |  | O=C(NC[C@H]1COCCN1C(=O)N1CCCCC1)c1ccc(-c2noc(C(F)(F)F)n2)cc1 [Example 89, N-(((3S)-4-(piperidin-1-ylcarbonyl)morpholin-3-yl)methyl)-4-(5-(trifluoromethyl)-1,2,4-oxadiazol-3-yl)benzamide] |
| 18% | 100% |  |  | O=C(NC[C@H]1COCCN1C(=O)c1cc(F)cc(F)c1)c1ccc(-c2noc(C(F)(F)F)n2)cc1 [Example 39, N-(((3S)-4-(3,5-difluorobenzoyl)morpholin-3-yl)methyl)-4-(5-(trifluoromethyl)-1,2,4-oxadiazol-3-yl)benzamide] |
| 51% | 98% |  |  | CCn1nccc1C(=O)N1CCOCC1CNC(=O)c1ccc(-c2noc(C(F)(F)F)n2)cc1 (stereo in doubt) [Example 106, N-(((3S)-4-((1-ethyl-1H-pyrazol-5-yl)carbonyl)morpholin-3-yl)methyl)-4-(5-(trifluoromethyl)-1,2,4-oxadiazol-3-yl)benzamide] |
| 36% | 95% |  |  | O=C(NCC1COCCN1C(=O)c1ccc(-c2ccccc2)cc1)c1ccc(-c2noc(C(F)(F)F)n2)cc1 (centres unmarked) [Example 23, N-((4-(biphenyl-4-ylcarbonyl)morpholin-3-yl)methyl)-4-(5-(trifluoromethyl)-1,2,4-oxadiazol-3-yl)benzamide] |
| 16% | 98% |  |  | Cc1nonc1C(=O)N1CCOC[C@H]1CNC(=O)c1ccc(-c2noc(C(F)(F)F)n2)cc1 [Example 132, N-(((3R)-4-((4-methyl-1,2,5-oxadiazol-3-yl)carbonyl)morpholin-3-yl)methyl)-4-(5-(trifluoromethyl)-1,2,4-oxadiazol-3-yl)benzamide] |
|  |  | 76% | 8% | O=C(NCC1COCCN1C(=O)C1CCNC1=O)c1ccc(-c2noc(C(F)(F)F)n2)cc1 (stereo in doubt) [Example 105, N-(((3S)-4-((2-oxopyrrolidin-3-yl)carbonyl)morpholin-3-yl)methyl)-4-(5-(trifluoromethyl)-1,2,4-oxadiazol-3-yl)benzamide] |
